Source: patent US12054498B2, “Heteroaromatic macrocyclic ether chemotherapeutic agents” (Nuvalent, Inc., priority 2020, dated 2024)

Assays:
ROS1-wt = molecular target: T1, ROS1-wt (Homo sapiens, UniProt P08922); test: Biochemical kinase assay, ROS1-wt kinase domain; conditions: apparent inhibitory constant, Morrison equation; ATP 2 mM in substrate solution; read-out: ROS1-wt Ki^app
T1 construct: purchased Carna 08-163
Outline: (§1)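 Compounds, as 100-fold DMSO stocks, were dispensed first, then substrate mix was added (ATP 2 mM, AQT0101 26 μM, in 50 mM HEPES pH 7.5/10 mM MgCl2). Reactions ran at 30 °C with fluorescence logged every 2 min over 120 min. Apparent inhibition constants came from fitting rates to Morrison's tight-binding equation.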

Ba/F3 cells TPM3-TRKA = molecular target: T2, Ba/F3 cells TPM3-TRKA (Homo sapiens, UniProt P04629); test: Ba/F3 cell proliferation assay, TPM3-TRKA; assay type: cell-based; conditions: 72 hours, CellTiter-Glo, read-out: TPM3-NTRK1-wt IC50
T2 construct: host or cells: Ba/F3 (RIKEN), retroviral pMSCV-puro; the other entry of the earlier key: TPM3 (P06753, Tropomyosin alpha-3 chain)
Outline: (§2)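 Ba/F3 lines stably expressing the fusion (retroviral pMSCV-puro, selected by IL-3 withdrawal plus puromycin 0.8 μg/mL, monoclonal) were seeded at 1,000 cells/well, dosed next day with 3-fold compound dilutions, and incubated 72 hours. CellTiter-Glo luminescence gave percent inhibition; IC50 by four-parameter logistic fit.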

[1] = molecular target: T3, Ba/F3 cells CD74-ROS1 wild-type (wt) (Homo sapiens, UniProt P08922); test: Ba/F3 cell proliferation assay, CD74-ROS1 wild-type; assay type: cell-based; conditions: 72 hours, CellTiter-Glo
T3 construct: fusion of the C-terminus of ROS1 with the N-terminus of various partner proteins; host or cells: Ba/F3 (RIKEN), retroviral pMSCV-puro; the other entry of the earlier key: CD74 (P04233, HLA class II histocompatibility antigen gamma chain)
Outline: (§3)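 First, retrovirally infected Ba/F3 cells were made IL-3-independent and selected with puromycin (0.8 μg/mL). Next, cells were plated and rested one day. Then compounds in 3-fold dilutions were added for 72 hours before CellTiter-Glo readout.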

[2] = molecular target: T4, Ba/F3 cells EML4-ALK wt (variant 1) (Homo sapiens, UniProt Q9UM73); test: Ba/F3 cell proliferation assay, EML4-ALK wt (variant 1); assay type: cell-based; conditions: 72 hours, CellTiter-Glo
T4 construct: echinoderm microtubule-associated protein-like 4 (EML4) gene and the ALK tyrosine kinase domain; host or cells: Ba/F3 (RIKEN), retroviral pMSCV-puro; the other entry of the earlier key: EML4 (Q9HC35, Echinoderm microtubule-associated protein-like 4)
Outline: as §2

ALK-wt = molecular target: T5, ALK-wt (Homo sapiens, UniProt Q9UM73); test: Biochemical kinase assay, ALK-wt kinase domain; conditions: apparent inhibitory constant, Morrison equation; ATP 2 mM in substrate solution; read-out: ALK-wt Ki^app
T5 construct: purchased Carna 08-518
Outline: (§4)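 Apparent Ki values come from fitting initial reaction rates against inhibitor concentration to the Morrison equation. Rates were taken from the linear phase of fluorogenic substrate phosphorylation (AQT0101 for ALK and ROS1, AQT0104 for TRKA; 26 μM in substrate solution with 2 mM ATP), monitored at 485 nm over 120 min at 30° C.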

[3] = molecular target: T6, Ba/F3 cells EML4-ALK L1196M/G1202R (variant 1) (Homo sapiens, UniProt Q9UM73, G1202R/L1196M); test: Ba/F3 cell proliferation assay, EML4-ALK L1196M/G1202R (variant 1); assay type: cell-based; conditions: 72 hours, CellTiter-Glo
T6 construct: echinoderm microtubule-associated protein-like 4 (EML4) gene and the ALK tyrosine kinase domain; host or cells: Ba/F3 (RIKEN), retroviral pMSCV-puro; the other entry of the earlier key: EML4 (Q9HC35, Echinoderm microtubule-associated protein-like 4)
Outline: as §2

ALK L1196M/G1202R = molecular target: T7, ALK L1196M/G1202R (Homo sapiens, UniProt Q9UM73, G1202R/L1196M); test: Biochemical kinase assay, ALK L1196M/G1202R kinase domain; conditions: apparent inhibitory constant, Morrison equation; ATP 2 mM in substrate solution; read-out: ALK-L1196M-G1202R Ki^app
T7 construct: purchased SignalChem A19-12NG
Outline: as §4

ROS1-G2032R = molecular target: T8, ROS1-G2032R (Homo sapiens, UniProt P08922, G2032R); test: Biochemical kinase assay, ROS1-G2032R kinase domain; conditions: apparent inhibitory constant, Morrison equation; ATP 2 mM in substrate solution; read-out: ROS1-G2032R Ki^app
T8 construct: purchased SignalChem R14-12BG
Outline: as §1

TRKA-wt = molecular target: T9, TRKA-wt (Homo sapiens, UniProt P04629); test: Biochemical kinase assay, TRKA-wt kinase domain; conditions: apparent inhibitory constant, Morrison equation; ATP 2 mM in substrate solution; read-out: TRKA-wt Ki^app
T9 construct: or TRKA-wt (1 nM, BPS Bio, 40280) kinase domains in buffer; purchased BPS Bio 40280
Outline: as §4

[4] = molecular target: T10, Ba/F3 cells CD74-ROS1 G2032R (Homo sapiens, UniProt P08922, G2032R); test: Ba/F3 cell proliferation assay, CD74-ROS1 G2032R; assay type: cell-based; conditions: 72 hours, CellTiter-Glo
T10 construct: fusion of the C-terminus of ROS1 with the N-terminus of various partner proteins; host or cells: Ba/F3 (RIKEN), retroviral pMSCV-puro; the other entry of the earlier key: CD74 (P04233, HLA class II histocompatibility antigen gamma chain)
Outline: as §3

[5] = test system: TPM3-NTRK1-wt IC50 / primary target IC50 (e.g. CD74-ROS1-wt); test: TRKA selectivity in Ba/F3 cells (TRKA potency divided by primary target potency); assay type: cell-based; conditions: for TPM3-NTRK1-wt/CD74-ROS1-G2032R selectivity ratio: TRKA potency / CD74-ROS1-G2032R potency; for TPM3-NTRK1-wt/CD74-ROS1-wt selectivity ratio: TRKA potency / CD74-ROS1-wt potency; for TPM3-NTRK1-wt/EML4-ALK-L1196M-G1202R selectivity ratio: TRKA potency / EML4-ALK-L1196M-G1202R potency; for TPM3-NTRK1-wt/EML4-ALK-wt selectivity ratio: TRKA potency / EML4-ALK-wt potency
Method: TRKA selectivity was calculated by dividing a compound's TRKA potency by its primary target potency (e.g. TPM3-NTRK1-wt IC50/CD74-ROS1-wt IC50). Compound selectivity can be interpreted by binning ratio values: bin A for very high selectivity, ratio >30-fold; bin B for high selectivity, ratio >10-fold; bin C for moderate selectivity, ratio ≥1; and bin D for low selectivity, ratio <1. […] (nd=not determined).

T9 sequence (P04629 510-781 limits assumed): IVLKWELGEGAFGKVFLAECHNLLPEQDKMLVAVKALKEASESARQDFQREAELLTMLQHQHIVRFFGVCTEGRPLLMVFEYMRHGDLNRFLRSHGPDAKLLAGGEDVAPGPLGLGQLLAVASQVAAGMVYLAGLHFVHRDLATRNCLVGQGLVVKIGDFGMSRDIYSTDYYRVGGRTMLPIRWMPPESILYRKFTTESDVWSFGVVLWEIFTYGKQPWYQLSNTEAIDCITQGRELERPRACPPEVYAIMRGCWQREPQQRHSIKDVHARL
T1 sequence (P08922 1945-2222 limits assumed): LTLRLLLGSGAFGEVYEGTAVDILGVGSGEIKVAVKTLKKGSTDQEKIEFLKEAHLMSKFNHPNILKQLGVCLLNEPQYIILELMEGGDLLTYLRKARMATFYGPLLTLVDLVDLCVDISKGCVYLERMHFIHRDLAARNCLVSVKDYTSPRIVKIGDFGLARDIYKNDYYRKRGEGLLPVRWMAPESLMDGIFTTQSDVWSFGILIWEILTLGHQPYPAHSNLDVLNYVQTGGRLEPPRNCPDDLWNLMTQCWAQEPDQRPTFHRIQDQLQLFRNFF
T8 sequence (P08922 1945-2222 G2032R limits assumed): as the sequence (P08922 1945-2222 limits assumed) above, with G88R counted along it
T5 sequence (Q9UM73 1116-1392 limits assumed): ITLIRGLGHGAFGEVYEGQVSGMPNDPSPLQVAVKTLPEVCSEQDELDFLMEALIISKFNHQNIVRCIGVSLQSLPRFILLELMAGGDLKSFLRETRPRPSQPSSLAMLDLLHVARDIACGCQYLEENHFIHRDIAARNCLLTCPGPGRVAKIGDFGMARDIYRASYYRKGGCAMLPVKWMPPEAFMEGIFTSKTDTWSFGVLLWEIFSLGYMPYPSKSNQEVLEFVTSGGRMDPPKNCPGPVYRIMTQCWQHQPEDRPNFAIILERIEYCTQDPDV
T10 sequence (P08922 1883-2347 G2032R limits assumed): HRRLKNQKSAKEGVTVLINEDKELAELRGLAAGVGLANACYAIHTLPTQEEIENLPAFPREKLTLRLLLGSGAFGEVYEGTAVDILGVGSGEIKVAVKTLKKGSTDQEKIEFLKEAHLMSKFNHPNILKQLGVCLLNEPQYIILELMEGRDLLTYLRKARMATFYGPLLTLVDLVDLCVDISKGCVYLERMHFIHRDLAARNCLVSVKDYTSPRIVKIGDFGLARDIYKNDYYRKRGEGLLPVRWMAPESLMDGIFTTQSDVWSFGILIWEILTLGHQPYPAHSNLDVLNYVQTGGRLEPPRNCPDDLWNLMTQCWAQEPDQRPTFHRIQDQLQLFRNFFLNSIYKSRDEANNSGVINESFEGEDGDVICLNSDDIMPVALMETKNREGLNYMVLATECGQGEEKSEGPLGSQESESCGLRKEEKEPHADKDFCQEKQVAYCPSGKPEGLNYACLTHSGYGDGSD
T7 sequence (Q9UM73 1116-1392 L1196M/G1202R limits assumed): as the sequence (Q9UM73 1116-1392 limits assumed) above, with L81M, G87R counted along it
T6 sequence (Q9UM73 with tags, fused parts or gaps L1196M/G1202R): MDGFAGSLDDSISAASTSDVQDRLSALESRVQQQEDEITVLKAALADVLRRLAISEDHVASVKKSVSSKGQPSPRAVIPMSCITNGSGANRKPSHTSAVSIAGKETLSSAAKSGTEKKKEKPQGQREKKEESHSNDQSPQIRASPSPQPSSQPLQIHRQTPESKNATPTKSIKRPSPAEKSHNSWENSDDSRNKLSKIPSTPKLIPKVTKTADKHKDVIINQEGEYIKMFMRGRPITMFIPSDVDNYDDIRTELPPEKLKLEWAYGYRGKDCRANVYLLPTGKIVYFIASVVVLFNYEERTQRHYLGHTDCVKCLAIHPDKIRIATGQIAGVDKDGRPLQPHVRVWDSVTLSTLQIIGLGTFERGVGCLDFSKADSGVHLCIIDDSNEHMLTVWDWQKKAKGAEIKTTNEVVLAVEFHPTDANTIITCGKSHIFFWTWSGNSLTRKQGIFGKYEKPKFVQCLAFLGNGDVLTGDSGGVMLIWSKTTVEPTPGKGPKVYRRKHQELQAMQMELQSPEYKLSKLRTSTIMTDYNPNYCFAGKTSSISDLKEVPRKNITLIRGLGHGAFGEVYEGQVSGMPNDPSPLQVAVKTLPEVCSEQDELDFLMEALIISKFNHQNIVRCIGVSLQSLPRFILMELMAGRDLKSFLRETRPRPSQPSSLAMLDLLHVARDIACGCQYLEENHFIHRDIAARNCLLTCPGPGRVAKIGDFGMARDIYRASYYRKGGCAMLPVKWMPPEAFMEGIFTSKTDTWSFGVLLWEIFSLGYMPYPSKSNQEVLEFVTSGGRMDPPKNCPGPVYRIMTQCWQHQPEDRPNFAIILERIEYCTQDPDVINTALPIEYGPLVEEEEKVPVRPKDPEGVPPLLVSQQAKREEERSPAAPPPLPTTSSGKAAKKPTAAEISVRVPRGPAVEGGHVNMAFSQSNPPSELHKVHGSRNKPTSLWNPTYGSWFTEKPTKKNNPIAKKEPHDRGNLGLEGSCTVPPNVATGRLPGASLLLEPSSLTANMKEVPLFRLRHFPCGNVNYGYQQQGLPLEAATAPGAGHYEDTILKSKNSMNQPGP
T3 sequence (P08922 1883-2347 limits assumed): as the sequence (P08922 1883-2347 G2032R limits assumed) above, with R150G counted along it
T2 sequence (P04629 510-796 limits assumed): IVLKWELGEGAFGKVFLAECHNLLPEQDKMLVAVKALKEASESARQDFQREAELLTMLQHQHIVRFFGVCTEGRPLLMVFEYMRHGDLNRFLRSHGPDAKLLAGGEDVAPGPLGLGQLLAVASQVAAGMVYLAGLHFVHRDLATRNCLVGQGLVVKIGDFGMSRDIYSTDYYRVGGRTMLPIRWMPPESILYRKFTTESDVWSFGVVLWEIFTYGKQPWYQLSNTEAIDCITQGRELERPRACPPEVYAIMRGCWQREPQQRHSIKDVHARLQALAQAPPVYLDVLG
T4 sequence (Q9UM73 with tags, fused parts or gaps): as the sequence (Q9UM73 with tags, fused parts or gaps L1196M/G1202R) above, with M635L, R641G counted along it

| SMILES | Ki (ROS1-wt) [nM] | IC50 (Ba/F3 cells TPM3-TRKA) [nM] | IC50 [1] [nM] | IC50 [2] [nM] | Ki (ALK-wt) [nM] | IC50 [3] [nM] | Ki (ALK L1196M/G1202R) [nM] | Ki (ROS1-G2032R) [nM] | Ki (TRKA-wt) [nM] | IC50 [4] [nM] | TPM3-NTRK1-wt/CD74-ROS1-G2032R selectivity ratio [5] | TPM3-NTRK1-wt/CD74-ROS1-wt selectivity ratio [5] | TPM3-NTRK1-wt/EML4-ALK-L1196M-G1202R selectivity ratio [5] | TPM3-NTRK1-wt/EML4-ALK-wt selectivity ratio [5] |
| --- | --- | --- | --- | --- | --- | --- | --- | --- | --- | --- | --- | --- | --- | --- |
| CCc1noc2c1-c1cnc(N)c(c1)O[C@H](C)c1cc(F)ccc1-c1cn(C)nc1C2 [Example 23, (19R)-3ethyl-16-fluoro-10,19-dimethyl-5,20-dioxa-4,9,10,23-tetraazapentacyclo[19.3.1.0^2,^6.0^8,^12.0^13,^18]pentacosa-1(24),2(6),3,8,11,13,15,17,21(25),22-decaen-22-amine] | < 50 | 50 to 500 | 0.1 to 50 | 0.1 to 50 | < 50 | 50 to 500 | < 50 | < 50 | 50 to 500 | 0.1 to 50 | A (bin A for very high selectivity, ratio >30-fold) | A (bin A for very high selectivity, ratio >30-fold) | C (bin C for moderate selectivity, ratio ≥1) | B (bin B for high selectivity, ratio >10-fold) |
| C[C@H]1Oc2cc(cnc2N)-c2c(cnn2CC(F)F)Cc2nn(C)nc2-c2ccc(F)cc21 [Example 24, (19R)-3-(2,2-difluoroethyl)-16-fluoro-10,19-dimethyl-20oxa3,4,9,10,11,23-hexaazapentacyclo[19.3.1.0^2,^6.0^8,^12.0^13,^18]pentacosa-1(24),2(6),4,8,11,13,15,17,21 (25),22-decaen-22-amine] | < 50 | > 500 | 0.1 to 50 | 0.1 to 50 | < 50 | 50 to 500 | < 50 | < 50 | > 500 | 0.1 to 50 | A (bin A for very high selectivity, ratio >30-fold) | A (bin A for very high selectivity, ratio >30-fold) | B (bin B for high selectivity, ratio >10-fold) | A (bin A for very high selectivity, ratio >30-fold) |
| C[C@H]1Oc2cc(cnc2N)-c2c(C#N)noc2Cc2nn(C)nc2-c2ccc(F)cc21 [Example 25, (19R)-22-amino-16-fluoro-10,19-dimethyl-5,20-dioxa-4,9,10,11,23-pentaazapentacyclo[19.3,1.0^2,^6.0^8,^12.0^13,^18]pentacosa-1(24),2(6),3,8,11,13,15,17,21(25),22-decaene-3-carbonitrile] | < 50 | > 500 | 0.1 to 50 | 50 to 500 | < 50 | > 500 | 50 to 500 | 50 to 500 | > 500 | 0.1 to 50 | A (bin A for very high selectivity, ratio >30-fold) | A (bin A for very high selectivity, ratio >30-fold) | C (bin C for moderate selectivity, ratio ≥1) | A (bin A for very high selectivity, ratio >30-fold) |
| C[C@H]1Oc2cc(cnc2N)-c2c(C3CCC3)noc2Cc2nn(C)nc2-c2ccc(F)cc21 [Example 26, (19R)-3-cyclobutyl-16-fluoro-10,19-dimethyl-5,20-dioxa-4,9,10,11,23-pentaazapentacyclo[19.3.1.0^2,^6.0^8,^12.0^13,^18]pentacosa-1(24),2(6),3,8,11,13,15,1 7,21(25),22-decaen-22-amine] | < 50 | 50 to 500 | 0.1 to 50 | 0.1 to 50 | < 50 | 0.1 to 50 | < 50 | < 50 | > 500 | 0.1 to 50 | A (bin A for very high selectivity, ratio >30-fold) | A (bin A for very high selectivity, ratio >30-fold) | C (bin C for moderate selectivity, ratio ≥1) | A (bin A for very high selectivity, ratio >30-fold) |
| CCn1nc(Cl)c2c1-c1cnc(N)c(c1)O[C@H](C)c1cc(F)ccc1-c1nn(C)nc1C2 [Example 28, (19R)-5-chloro-3ethyl-16-fluoro-10,19-dimethyl-20-oxa-3,4,9,10,11,23-hexaazapentacyclo[19.3.1.0^2,^6.0^8,^12.0^13,^18]pentacosa-1(24),2(6),4,8,11,13,15,17,21(25),22-decaen-22-amine] | < 50 | 50 to 500 | 0.1 to 50 | 0.1 to 50 | < 50 | 50 to 500 | < 50 | < 50 | > 500 | 0.1 to 50 | A (bin A for very high selectivity, ratio >30-fold) | A (bin A for very high selectivity, ratio >30-fold) | C (bin C for moderate selectivity, ratio ≥1) | B (bin B for high selectivity, ratio >10-fold) |
| CCn1nc(C)c2c1-c1cnc(N)c(c1)O[C@H](C)c1cc(F)ccc1-c1nn(C)nc1C2 [Example 29, (19R)-3-ethyl-16-fluoro-5,10,19-trimethyl-20-oxa-3,4,9,10,11,23-hexaazapentacyclo[19.3.1.0^2,^6.0^8,^12.0^13,^18]pentacosa-1(24),2(6),4,8,11,13,15,17,21(25),22-decaen-22-amine] | < 50 | 50 to 500 | 0.1 to 50 | 0.1 to 50 | < 50 | 0.1 to 50 | < 50 | < 50 | 50 to 500 | 0.1 to 50 | A (bin A for very high selectivity, ratio >30-fold) | A (bin A for very high selectivity, ratio >30-fold) | C (bin C for moderate selectivity, ratio ≥1) | A (bin A for very high selectivity, ratio >30-fold) |
